Consider 24 compounds from patent publication US20230374015A1, “INHIBITORS OF FIBROBLAST GROWTH FACTOR RECEPTOR KINASES” (Kinnate Biopharma Inc., priority 2020, published 2023).

Where only a bound is given, the exact number is not on record here.

In this assay the target is FGFR2 (Homo sapiens, UniProt P21802). In words: FGFR2 Kinase Protocol - Condition 2 (Reaction Biology HotSpot radiometric kinase assay, no preincubation). The format is biochemical. Conditions: poly[Glu:Tyr] (4:1) 0.2 mg/ml, ATP 100 microM, 2 hr room temperature. The method in brief: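 Ten-point, 3-fold compound dilutions were tested against wildtype or V564F FGFR2 with 100 µM ATP (33P-labelled), no preincubation, and 0.2 mg/ml poly[Glu:Tyr] (4:1) substrate. After 2 hr at room temperature, incorporation was read on P81 filter paper; IC50 fitted from activity remaining relative to vehicle.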
Sequence of FGFR2 (P21802 22-821): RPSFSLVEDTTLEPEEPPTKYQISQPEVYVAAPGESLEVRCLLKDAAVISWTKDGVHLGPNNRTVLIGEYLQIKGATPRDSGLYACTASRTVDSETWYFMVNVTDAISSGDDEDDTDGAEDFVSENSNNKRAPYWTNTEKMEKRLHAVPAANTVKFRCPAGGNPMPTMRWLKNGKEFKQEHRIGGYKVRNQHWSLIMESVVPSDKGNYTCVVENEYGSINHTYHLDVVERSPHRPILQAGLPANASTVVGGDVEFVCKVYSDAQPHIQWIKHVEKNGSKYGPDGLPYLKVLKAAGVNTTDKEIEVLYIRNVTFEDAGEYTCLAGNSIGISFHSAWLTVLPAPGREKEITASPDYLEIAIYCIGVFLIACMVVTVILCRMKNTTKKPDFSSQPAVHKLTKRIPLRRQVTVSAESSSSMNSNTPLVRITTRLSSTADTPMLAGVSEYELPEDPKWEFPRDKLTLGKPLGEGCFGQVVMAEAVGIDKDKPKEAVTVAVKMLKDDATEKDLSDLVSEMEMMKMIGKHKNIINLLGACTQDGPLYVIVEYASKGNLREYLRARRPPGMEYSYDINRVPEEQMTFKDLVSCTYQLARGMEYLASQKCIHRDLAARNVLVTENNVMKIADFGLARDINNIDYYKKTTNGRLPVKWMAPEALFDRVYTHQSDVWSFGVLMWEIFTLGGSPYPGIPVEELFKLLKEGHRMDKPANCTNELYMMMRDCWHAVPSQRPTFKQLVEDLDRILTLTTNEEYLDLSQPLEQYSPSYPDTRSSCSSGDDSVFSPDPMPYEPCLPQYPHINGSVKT

Broadly, the IC50 is the concentration that gives 50% inhibition. `C=CC(=O)N1C[C@@H](n2nc(C#Cc3cc4ncn(C)c4cc3Cl)c3c(N)nccc32)C[C@@H]1C` [Example 167, 1-((2S,4S)-4-(4-amino-3-((6-chloro-1-methyl-1H-benzo[d]imidazol-5-yl)ethynyl)-1H-pyrazolo[4,3-c]pyridin-1-yl)-2-methylpyrrolidin-1-yl)prop-2-en-1-one] registered a 50% inhibitory concentration (IC50) not above 100 nM. The same measure, in the same setting: the result for `C=CC(=O)N1C[C@@H](n2nc(C#Cc3cc4ncn(C)c4cc3F)c3c(N)nccc32)C[C@@H]1COC` [Example 74, 1-[(2R,4S)-4-[4-Amino-3-[2-(6-fluoro-1-methyl-1,3-benzodiazol-5-yl)ethynyl]pyrazolo[4,3-c]pyridin-1-yl]-2-(methoxymethyl)pyrrolidin-1-yl]prop-2-en-1-one] reads not above 100 nM.

As to `C=CC(=O)N1C[C@@H](n2nc(C#Cc3cc4ncn(C)c4c(F)c3Cl)c3c(N)ncnc32)C[C@@H]1CC#N` [Example 161, 2-[(2R,4S)-4-{4-Amino-3-[2-(6-chloro-7-fluoro-1-methyl-1,3-benzodiazol-5-yl)ethynyl]pyrazolo[3,4-d]pyrimidin-1-yl}-1-(prop-2-enoyl)pyrrolidin-2-yl]acetonitrile], the 50% inhibitory concentration (IC50) is not above 100 nM. As for `C=CC(=O)N1CC[C@H](n2cc(C#Cc3cc4ncn(CC)c4cc3Cl)c3c(N)ncnc32)C1` [Example 143, (S)-1-(3-(4-Amino-5-((6-chloro-1-ethyl-1H-benzo[d]imidazol-5-yl)ethynyl)-7H-pyrrolo[2,3-d]pyrimidin-7-yl)pyrrolidin-1-yl)prop-2-en-1-one], the IC50 was not above 100 nM. Same read-out and setting: the result for `C=CC(=O)N1C[C@@H](n2nc(C#Cc3c(Cl)cc4c(nc(C)n4C)c3F)c3c(N)ncnc32)C[C@@H]1COC` [Example 102, 1-((2R,4S)-4-(4-Amino-3-((6-chloro-4-fluoro-1,2-dimethyl-1H-benzo[d]imidazol-5-yl)ethynyl)-1H-pyrazolo[3,4-d]pyrimidin-1-yl)-2-(methoxymethyl)pyrrolidin-1-yl)prop-2-en-1-one] reads not above 100 nM. The compound `C=CC(=O)N1C[C@@H](n2nc(C#Cc3ccc4nn(CC)cc4c3)c3c(N)nccc32)C[C@@H]1COC` [Example 38, 1-[(2R,4S)-4-[4-amino-3-[2-(2-ethylindazol-5-yl)ethynyl]pyrazolo[4,3-c]pyridin-1-yl]-2-(methoxymethyl)pyrrolidin-1-yl]prop-2-en-1-one] yielded a 50% inhibitory concentration (IC50) of 1000 to 10000 nM.

Compound `C=CC(=O)N1C[C@@H](n2nc(C#Cc3cc4ncn(C)c4cc3Cl)c3c(N)ncnc32)C[C@@H]1C` [Example 164, 1-((2S,4S)-4-(4-amino-3-((6-chloro-1-methyl-1H-benzo[d]imidazol-5-yl)ethynyl)-1H-pyrazolo[3,4-d]pyrimidin-1-yl)-2-methylpyrrolidin-1-yl)prop-2-en-1-one] displayed an IC50 not above 100 nM.

For the setting “given as numeric bound”, `C=CC(=O)N1CC[C@H](c2nc(C#Cc3cc4ncn(C5CC5)c4cc3F)c3c(N)ncnn23)C1` [Example 200, (S)-1-(3-(4-Amino-5-((1-cyclopropyl-6-fluoro-1H-benzo[d]imidazol-5-yl)ethynyl)imidazo[5,1-f][1,2,4]triazin-7-yl)pyrrolidin-1-yl)prop-2-en-1-one] displayed an IC50 of more than 500 nM. Take `C=CC(=O)N1C[C@@H](n2nc(C#Cc3ccc4c(c3)nc(C(F)(F)F)n4C)c3c(N)ncnc32)C[C@@H]1COC` [Example 46, 1-((2R,4S)-4-(4-amino-3-((1-methyl-2-(trifluoromethyl)-1H-benzo[d]imidazol-5-yl)ethynyl)-1H-pyrazolo[3,4-d]pyrimidin-1-yl)-2-(methoxymethyl)pyrrolidin-1-yl)prop-2-en-1-one]: the IC50 was not above 100 nM. As to `C=CC(=O)N1C[C@@H](c2nc(C#Cc3cc4ncn(C5CC5)c4cc3F)c3c(N)ncnn23)C[C@@H]1COC` [Example 199, 1-[(2R,4S)-4-{4-Amino-5-[2-(1-cyclopropyl-6-fluoro-1,3-benzodiazol-5-yl)ethynyl]imidazo[4,3-f][1,2,4]triazin-7-yl}-2-(methoxymethyl)pyrrolidin-1-yl]prop-2-en-1-one], the IC50 is not above 100 nM.

`C=CC(=O)N1C[C@@H](n2nc(C#Cc3c(F)cc4[nH]c(C)nc4c3F)c3c(N)ncnc32)C[C@@H]1COC` [Example 94, 1-[(2R,4S)-4-[4-Amino-3-[2-(4,6-difluoro-2-methyl-1H-1,3-benzodiazol-5-yl)ethynyl]pyrazolo[3,4-d]pyrimidin-1-yl]-2-(methoxymethyl)pyrrolidin-1-yl]prop-2-en-1-one] gave an IC50 not above 100 nM. Regarding `C=CC(=O)N1C[C@H](c2nc(C#Cc3cc4ncn(C5CC5)c4cc3F)c3c(N)nccn23)C[C@@H]1COC` [Example 202, 1-[(2R,4R)-4-{8-Amino-1-[2-(1-cyclopropyl-6-fluoro-1,3-benzodiazol-5-yl)ethynyl]imidazo[1,5-a]pyrazin-3-yl}-2-(methoxymethyl)pyrrolidin-1-yl]prop-2-en-1-one], under “given as numeric bound”, the half-maximal inhibitory concentration (IC50) is more than 500 nM. Turning to `C=CC(=O)N1C[C@@H](n2nc(C#Cc3cc4ncn(CC)c4c(F)c3F)c3c(N)ncnc32)C[C@@H]1COC` [Example 123, 1-[(2R,4S)-4-[4-Amino-3-[2-(1-ethyl-6,7-difluoro-1,3-benzodiazol-5-yl)ethynyl]pyrazolo[3,4-d]pyrimidin-1-yl]-2-(methoxymethyl)pyrrolidin-1-yl]prop-2-en-1-one], the 50% inhibitory concentration (IC50) was not above 100 nM. As to `C=CC(=O)N1C[C@@H](n2nc(C#Cc3c(F)cc4c(ncn4C)c3F)c3c(N)ncnc32)C[C@@H]1COC(F)F` [Example 139, 1-[(2R,4S)-4-{4-Amino-3-[2-(4,6-difluoro-1-methyl-1,3-benzodiazol-5-yl)ethynyl]pyrazolo[3,4-d]pyrimidin-1-yl}-2-[(difluoromethoxy)methyl]pyrrolidin-1-yl]prop-2-en-1-one], the IC50 is not above 100 nM.

For `C=CC(=O)N1C[C@@H](n2nc(C#Cc3cc4ncn(C)c4c(F)c3Cl)c3c(N)ncnc32)C[C@@H]1COC` [Example 121, 1-[(2R,4S)-4-[4-Amino-3-[2-(6-chloro-7-fluoro-1-methyl-1,3-benzodiazol-5-yl)ethynyl]pyrazolo[3,4-d]pyrimidin-1-yl]-2-(methoxymethyl)pyrrolidin-1-yl]prop-2-en-1-one], the IC50 is not above 100 nM. In the case of `C=CC(=O)N1C[C@@H](n2nc(C#Cc3cc4nc(C)[nH]c4cc3Cl)c3c(N)nccc32)C[C@@H]1COC` [Example 100, 1-[(2R,4S)-4-[4-Amino-3-[2-(6-chloro-2-methyl-1H-1,3-benzodiazol-5-yl)ethynyl]pyrazolo[4,3-c]pyridin-1-yl]-2-(methoxymethyl)pyrrolidin-1-yl]prop-2-en-1-one], the half-inhibitory concentration (IC50) is not above 100 nM. With `C=CC(=O)N1C[C@@H](n2nc(C#Cc3c(F)cc4c(ncn4C4CC4)c3F)c3c(N)ncnc32)C[C@@H]1COC` [Example 72, 1-[(2R,4S)-4-[4-Amino-3-[2-(1-cyclopropyl-4,6-difluoro-1,3-benzodiazol-5-yl)ethynyl]pyrazolo[3,4-d]pyrimidin-1-yl]-2-(methoxymethyl)pyrrolidin-1-yl]prop-2-en-1-one], the IC50 is not above 100 nM. `C=CC(=O)N1C[C@@H](n2nc(C#Cc3cc4ncn(C)c4cc3F)c3c(N)ncnc32)C[C@@H]1COC` [Example 62, 1-[(2R,4S)-4-[4-Amino-3-[2-(6-fluoro-1-methyl-1,3-benzodiazol-5-yl)ethynyl]pyrazolo[3,4-d]pyrimidin-1-yl]-2-(methoxymethyl)pyrrolidin-1-yl]prop-2-en-1-one] came in with a half-inhibitory concentration (IC50) not above 100 nM. On the same count and under the same terms, then `C=CC(=O)N1C[C@@H](n2nc(C#Cc3cc4ncn(C5CC5)c4cc3F)c3c(N)nccc32)C[C@@H]1COC` [Example 109, 1-[(2R,4S)-4-[4-Amino-3-[2-(1-cyclopropyl-6-fluoro-1,3-benzodiazol-5-yl)ethynyl]pyrazolo[4,3-c]pyridin-1-yl]-2-(methoxymethyl)pyrrolidin-1-yl]prop-2-en-1-one], with not above 100 nM. Turning to `C=CC(=O)N1CC[C@H](n2nc(C#Cc3ccc4c(c3)ncn4C3CC3)c3c(N)ncnc32)C1` [Example 193, 1-[(3S)-3-{4-Amino-3-[2-(1-cyclopropyl-1,3-benzodiazol-5-yl)ethynyl]pyrazolo[3,4-d]pyrimidin-1-yl}pyrrolidin-1-yl]prop-2-en-1-one], the IC50 was not above 100 nM.

As to `C=CC(=O)N1C[C@@H](n2nc(C#Cc3cc4ncn(CC)c4cc3Cl)c3c(N)ncnc32)C[C@@H]1C(F)F` [Example 180, 1-((2R,4S)-4-(4-amino-3-((6-chloro-1-ethyl-1H-benzo[d]imidazol-5-yl)ethynyl)-1H-pyrazolo[3,4-d]pyrimidin-1-yl)-2-(difluoromethyl)pyrrolidin-1-yl)prop-2-en-1-one], the IC50 is not above 100 nM. `C=CC(=O)N1C[C@@H](n2nc(C#Cc3c(F)cc4c(ncn4C4CC4)c3F)c3c(N)nccc32)C[C@@H]1COC` [Example 73, 1-[(2R,4S)-4-[4-Amino-3-[2-(1-cyclopropyl-4,6-difluoro-1,3-benzodiazol-5-yl)ethynyl]pyrazolo[4,3-c]pyridin-1-yl]-2-(methoxymethyl)pyrrolidin-1-yl]prop-2-en-1-one; formic acid] showed a 50% inhibitory concentration (IC50) not above 100 nM. For `C=CC(=O)N1C[C@@H](n2nc(C#Cc3cc4ncn(CC)c4c(F)c3F)c3c(N)ncnc32)C[C@@H]1CC#N` [Example 157, 2-[(2R,4S)-4-{4-Amino-3-[2-(1-ethyl-6,7-difluoro-1,3-benzodiazol-5-yl)ethynyl]pyrazolo[3,4-d]pyrimidin-1-yl}-1-(prop-2-enoyl)pyrrolidin-2-yl]acetonitrile], the IC50 is not above 100 nM. For the compound `C=CC(=O)N1C[C@@H](n2cc(C#Cc3cc4nc(C)n(C(F)F)c4cc3Cl)c3c(N)ncnc32)C[C@@H]1COC` [Example 131, 1-[(2R,4S)-4-(4-Amino-5-{2-[6-chloro-1-(difluoromethyl)-2-methyl-1,3-benzodiazol-5-yl]ethynyl}pyrrolo[2,3-d]pyrimidin-7-yl)-2-(methoxymethyl)pyrrolidin-1-yl]prop-2-en-1-one], the IC50 was not above 100 nM.
